Measurements taken from the supplement of paper PMC11451515.

Experiments:
Details in all cases: 48 h
[1] = test system: NOMO1; experiment: AUC of viability dose-response curve (% viability x log10 dose units); higher = less sensitive
Method in brief: (§1)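 Library compounds in DMSO were applied for 48 h at 37°C at 11 threefold doses (47 μM to 0.79 nM) to medium-adapted leukemia cells in 1536-well plates holding 500 or 1000 cells/well. Luminescence from CellTiter-Glo One was normalised plate by plate against DMSO and cell-free wells. Area under the curve came from trapezoidal integration of a log-logistic fit, after scaling curves that rose above full viability and discarding those that failed quality control. The fit had four parameters and used log10 doses.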

[2] = test system: P12-Ichikawa; experiment: as above
Method in brief: as §1

[3] = test system: SEM cells; experiment: as above
Method in brief: as §1

[4] = test system: NOMO1; experiment: cell viability relative to DMSO control; higher = less cytotoxic
Method in brief: (§2)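 NOMO1, SEM and P12-Ichikawa leukemia cells spent at least four passages adapting to each medium before use. They were seeded at 500 cells/well (NOMO1, SEM) or 1000 cells/well (P12-Ichikawa) in 5 μl in 1536-well plates and pin-dosed with library compounds in DMSO at 11 threefold steps from 47 μM down to 0.79 nM. After 48 h at 37°C, CellTiter-Glo One luminescence was read. Viability is reported as a percentage of the DMSO wells on each plate, with cell-free wells as background.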

[5] = test system: P12-Ichikawa; experiment: as above
Method in brief: as §2

[6] = test system: SEM cells; experiment: as above
Method in brief: as §2

CC/C(=C(/CC)c1ccc(O)cc1)c1ccc(O)cc1
AUC of viability dose-response curve
Details | [1] | [2] | [3]
HPLM + 10% dialyzed FBS | 442 | 463 | 473
RPMI 5 mM glucose + 10% FBS | 465 | 457 | 460
RPMI 5 mM glucose + 10% dialyzed FBS | 429 | 436 | 421

C[C@@H](Oc1ccc2[nH]nc(/C=C/c3cnn(CCO)c3)c2c1)c1c(Cl)cncc1Cl
cell viability [%]
Details | [4] | [5] | [6]
HPLM + 10% dialyzed FBS, 0.000781 µM | 99.5 | 91.7 | 90.3
HPLM + 10% dialyzed FBS, 0.00234 µM | 102 | 88.7 | 86.4
HPLM + 10% dialyzed FBS, 0.00702 µM | 98.9 | 93.6 | 85.9
HPLM + 10% dialyzed FBS, 0.0211 µM | 93.9 | 94.2 | 85.9
HPLM + 10% dialyzed FBS, 0.0632 µM | 99.9 | 94.2 | 85.6
HPLM + 10% dialyzed FBS, 0.19 µM | 89.7 | 86.2 | 58.6
HPLM + 10% dialyzed FBS, 0.569 µM | 86 | 83.9 | 31.3
HPLM + 10% dialyzed FBS, 1.71 µM | 86.4 | 88.3 | 37.2
HPLM + 10% dialyzed FBS, 5.12 µM | 70.9 | 86.2 | 20
HPLM + 10% dialyzed FBS, 15.4 µM | 38.4 | 12.2 | 14.8
HPLM + 10% dialyzed FBS, 46.1 µM | 41.3 | 51.3 | 30.9
RPMI 5 mM glucose + 10% FBS, 0.000781 µM | 94.6 | 85.9 | 118
RPMI 5 mM glucose + 10% FBS, 0.00234 µM | 108 | 89.8 | 136
RPMI 5 mM glucose + 10% FBS, 0.00702 µM | 89.2 | 89.4 | 103
RPMI 5 mM glucose + 10% FBS, 0.0211 µM | 86 | 94.3 | 103
RPMI 5 mM glucose + 10% FBS, 0.0632 µM | 80.9 | 100 | 108
RPMI 5 mM glucose + 10% FBS, 0.19 µM | 83.6 | 89.5 | 75.5
RPMI 5 mM glucose + 10% FBS, 0.569 µM | 89.3 | 93.9 | 32.7
RPMI 5 mM glucose + 10% FBS, 1.71 µM | 76.3 | 89.7 | 42.8
RPMI 5 mM glucose + 10% FBS, 5.12 µM | 74.2 | 75.9 | 15.6
RPMI 5 mM glucose + 10% FBS, 15.4 µM | 40 | 19.3 | 13.8
RPMI 5 mM glucose + 10% FBS, 46.1 µM | 33.9 | 38 | 21
RPMI 5 mM glucose + 10% dialyzed FBS, 0.000781 µM | 82.9 | 78.3 | 82.4
RPMI 5 mM glucose + 10% dialyzed FBS, 0.00234 µM | 92.3 | 92.2 | 84.6
RPMI 5 mM glucose + 10% dialyzed FBS, 0.00702 µM | 89 | 83.8 | 82
RPMI 5 mM glucose + 10% dialyzed FBS, 0.0211 µM | 85.2 | 90.3 | 73.5
RPMI 5 mM glucose + 10% dialyzed FBS, 0.0632 µM | 92.8 | 94.6 | 80
RPMI 5 mM glucose + 10% dialyzed FBS, 0.19 µM | 99.1 | 86.1 | 50.9
RPMI 5 mM glucose + 10% dialyzed FBS, 0.569 µM | 87.4 | 76.7 | 17.5
RPMI 5 mM glucose + 10% dialyzed FBS, 1.71 µM | 73.5 | 86.8 | 33.7
RPMI 5 mM glucose + 10% dialyzed FBS, 5.12 µM | 80.9 | 88.6 | 12.4
RPMI 5 mM glucose + 10% dialyzed FBS, 15.4 µM | 40.9 | 23.5 | 10.9
RPMI 5 mM glucose + 10% dialyzed FBS, 46.1 µM | 34.9 | 41.6 | 20.9

AUC of viability dose-response curve
Details | HPLM + 10% dialyzed FBS | RPMI 5 mM glucose + 10% FBS | RPMI 5 mM glucose + 10% dialyzed FBS
[1] | 401 | 379 | 381
[2] | 386 | 385 | 374

O=C1Cc2cc(CCN3CCN(c4nsc5ccccc45)CC3)c(Cl)cc2N1
AUC of viability dose-response curve
Details | [1] | [2] | [3]
HPLM + 10% dialyzed FBS | 444 | 459 | 380
RPMI 5 mM glucose + 10% FBS | 460 | 469 | 366
RPMI 5 mM glucose + 10% dialyzed FBS | 457 | 464 | 362

CO[C@H]1O[C@@H]2O[C@@]3(C)CC[C@H]4[C@H](C)CC[C@@H]([C@H]1C)[C@@]24OO3
AUC of viability dose-response curve
Details | [1] | [2] | [3]
HPLM + 10% dialyzed FBS | 436 | 433 | 429
RPMI 5 mM glucose + 10% FBS | 433 | 430 | 456
RPMI 5 mM glucose + 10% dialyzed FBS | 405 | 417 | 451
